Test results as given in ChEMBL document CHEMBL2010711, “Synthesis and comparative evaluation of 4-oxa- and 4-aza-podophyllotoxins as antiproliferative microtubule destabilizing agents” (Bioorg Med Chem Lett, 2012).
Activity calls are given as the source filed them.

Assays:
[1] = tested on: 786-0; experiment: Cytotoxicity against human 786-0 cells after 48 hrs by trypan blue dye exclusion assay; format: functional; settings: 786-0, 48 h
[2] = tested on: MCF7; experiment: Cytotoxicity against human MCF7 cells after 48 hrs by trypan blue dye exclusion assay; format: functional; settings: MCF7, 48 h
[3] = tested on: HT-29; experiment: Cytotoxicity against human HT-29 cells after 48 hrs by trypan blue dye exclusion assay; format: functional; settings: HT-29, 48 h
[4] = tested on: IGROV-1; experiment: Cytotoxicity against human IGROV1 cells after 48 hrs by trypan blue dye exclusion assay; format: functional; settings: IGROV-1, 48 h
[5] = tested on: Paracentrotus lividus; experiment: Antimitotic activity against Paracentrotus lividus embryo assessed as cleavage alteration at 2 fold less effective threshold concentration after 2.5 to 6 hrs; format: functional, organism-based
[6] = tested on: SK-MEL-5; experiment: Cytotoxicity against human SK-MEL-5 cells after 48 hrs by trypan blue dye exclusion assay; format: functional; settings: SK-MEL-5, 48 h
[7] = Cytotoxicity against human Hs 578T cells after 48 hrs by trypan blue dye exclusion assay; format: functional
[8] = tested on: MOLT-4; experiment: Cytotoxicity against human MOLT4 cells after 48 hrs by trypan blue dye exclusion assay; format: functional; settings: MOLT-4, 48 h
[9] = tested on: RXF 393; experiment: Cytotoxicity against human RXF393 cells after 48 hrs by trypan blue dye exclusion assay; format: functional; settings: RXF 393, 48 h
[10] = tested on: SK-OV-3; experiment: Cytotoxicity against human SKOV3 cells after 48 hrs by trypan blue dye exclusion assay; format: functional; settings: SK-OV-3, 48 h
[11] = tested on: CAKI-1; experiment: Cytotoxicity against human CAKI-1 cells after 48 hrs by trypan blue dye exclusion assay; format: functional; settings: CAKI-1, 48 h
[12] = tested on: SF-268; experiment: Cytotoxicity against human SF268 cells after 48 hrs by trypan blue dye exclusion assay; format: functional; settings: SF-268, 48 h
[13] = tested on: CCRF-CEM; experiment: Cytotoxicity against human CCRF-CEM cells after 48 hrs by trypan blue dye exclusion assay; format: functional
[14] = tested on: NCI-H226; experiment: Cytotoxicity against human NCI-H226 cells after 48 hrs by trypan blue dye exclusion assay; format: functional; settings: NCI-H226, 48 h
[15] = tested on: OVCAR-4; experiment: Cytotoxicity against human OVCAR4 cells after 48 hrs by trypan blue dye exclusion assay; format: functional; settings: OVCAR-4, 48 h
[16] = tested on: MDA-MB-468; experiment: Cytotoxicity against human MDA-MB-468 cells after 48 hrs by trypan blue dye exclusion assay; format: functional; settings: MDA-MB-468, 48 h
[17] = tested on: SF-539; experiment: Cytotoxicity against human SF539 cells after 48 hrs by trypan blue dye exclusion assay; format: functional; settings: SF-539, 48 h
[18] = tested on: M14; experiment: Cytotoxicity against human M14 cells after 48 hrs by trypan blue dye exclusion assay; format: functional; settings: M14, 48 h
[19] = tested on: NCI-H460; experiment: Cytotoxicity against human NCI-H460 cells after 48 hrs by trypan blue dye exclusion assay; format: functional; settings: NCI-H460, 48 h
[20] = tested on: Paracentrotus lividus; experiment: Microtubule destabilizing activity in Paracentrotus lividus embryo assessed as embryo spinning at 2 fold less effective threshold concentration after 15 mins to 20 hrs; format: functional, organism-based
[21] = tested on: SNB-75; experiment: Cytotoxicity against human SNB75 cells after 48 hrs by trypan blue dye exclusion assay; format: functional; settings: SNB-75, 48 h
[22] = tested on: HOP-92; experiment: Cytotoxicity against human HOP92 cells after 48 hrs by trypan blue dye exclusion assay; format: functional; settings: HOP-92, 48 h
[23] = tested on: OVCAR-3; experiment: Cytotoxicity against human OVCAR3 cells after 48 hrs by trypan blue dye exclusion assay; format: functional; settings: OVCAR-3, 48 h
[24] = tested on: COLO 205; experiment: Cytotoxicity against human COLO205 cells after 48 hrs by trypan blue dye exclusion assay; format: functional; settings: COLO 205, 48 h
[25] = tested on: MDA-MB-231; experiment: Cytotoxicity against human MDA-MB-231 cells after 48 hrs by trypan blue dye exclusion assay; format: functional; settings: MDA-MB-231, 48 h
[26] = tested on: SK-MEL-28; experiment: Cytotoxicity against human SK-MEL-28 cells after 48 hrs by trypan blue dye exclusion assay; format: functional; settings: SK-MEL-28, 48 h
[27] = tested on: Paracentrotus lividus; experiment: Antimitotic activity against Paracentrotus lividus embryo assessed as cleavage arrest at 2 fold less effective threshold concentration after 2.5 to 6 hrs; format: functional, organism-based
[28] = tested on: PC-3; experiment: Cytotoxicity against human PC3 cells after 48 hrs by trypan blue dye exclusion assay; format: functional; settings: PC-3, 48 h
[29] = tested on: HCC 2998; experiment: Cytotoxicity against human HCC2998 cells after 48 hrs by trypan blue dye exclusion assay; format: functional; settings: HCC 2998, 48 h
[30] = tested on: LOX IMVI; experiment: Cytotoxicity against human LOXIMVI cells after 48 hrs by trypan blue dye exclusion assay; format: functional
[31] = tested on: SK-MEL-2; experiment: Cytotoxicity against human SK-MEL-2 cells after 48 hrs by trypan blue dye exclusion assay; format: functional; settings: SK-MEL-2, 48 h
[32] = tested on: EKVX; experiment: Cytotoxicity against human EKVX cells after 48 hrs by trypan blue dye exclusion assay; format: functional
[33] = tested on: HL-60(TB); experiment: Cytotoxicity against human HL-60(TB) cells after 48 hrs by trypan blue dye exclusion assay; format: functional; settings: HL-60, 48 h
[34] = tested on: RPMI-8226; experiment: Cytotoxicity against human RPMI8226 cells after 48 hrs by trypan blue dye exclusion assay; format: functional; settings: RPMI-8226, 48 h
[35] = tested on: A549; experiment: Cytotoxicity against human A549 cells after 48 hrs by trypan blue dye exclusion assay; format: functional; settings: A549, 48 h
[36] = tested on: OVCAR-8; experiment: Cytotoxicity against human OVCAR8 cells after 48 hrs by trypan blue dye exclusion assay; format: functional; settings: OVCAR-8, 48 h
[37] = tested on: TK-10; experiment: Cytotoxicity against human TK10 cells after 48 hrs by trypan blue dye exclusion assay; format: functional; settings: TK-10, 48 h
[38] = tested on: SF-295; experiment: Cytotoxicity against human SF295 cells after 48 hrs by trypan blue dye exclusion assay; format: functional; settings: SF-295, 48 h
[39] = tested on: SNB-19; experiment: Cytotoxicity against human SNB19 cells after 48 hrs by trypan blue dye exclusion assay; format: functional; settings: SNB-19, 48 h
[40] = tested on: KM12; experiment: Cytotoxicity against human KM12 cells after 48 hrs by trypan blue dye exclusion assay; format: functional; settings: KM12, 48 h
[41] = tested on: UACC-257; experiment: Cytotoxicity against human UACC257 cells after 48 hrs by trypan blue dye exclusion assay; format: functional; settings: UACC-257, 48 h
[42] = tested on: UACC-62; experiment: Cytotoxicity against human UACC62 cells after 48 hrs by trypan blue dye exclusion assay; format: functional; settings: UACC-62, 48 h
[43] = tested on: HCT-15; experiment: Cytotoxicity against human HCT15 cells after 48 hrs by trypan blue dye exclusion assay; format: functional; settings: HCT-15, 48 h
[44] = tested on: BT-549; experiment: Cytotoxicity against human BT549 cells after 48 hrs by trypan blue dye exclusion assay; format: functional; settings: BT-549, 48 h
[45] = tested on: DU-145; experiment: Cytotoxicity against human DU145 cells after 48 hrs by trypan blue dye exclusion assay; format: functional; settings: DU-145, 48 h
[46] = tested on: OVCAR-5; experiment: Cytotoxicity against human OVCAR5 cells after 48 hrs by trypan blue dye exclusion assay; format: functional; settings: OVCAR-5, 48 h
[47] = tested on: SW-620; experiment: Cytotoxicity against human SW620 cells after 48 hrs by trypan blue dye exclusion assay; format: functional; settings: SW-620, 48 h
[48] = tested on: MDA-MB-435; experiment: Cytotoxicity against human MDA-MB-435 cells after 48 hrs by trypan blue dye exclusion assay; format: functional; settings: MDA-MB-435, 48 h
[49] = tested on: UO-31; experiment: Cytotoxicity against human UO31 cells after 48 hrs by trypan blue dye exclusion assay; format: functional; settings: UO-31, 48 h
[50] = tested on: ACHN; experiment: Cytotoxicity against human ACHN cells after 48 hrs by trypan blue dye exclusion assay; format: functional
[51] = tested on: NCI/ADR-RES; experiment: Cytotoxicity against human NCI/ADR-RES cells after 48 hrs by trypan blue dye exclusion assay; format: functional
[52] = tested on: A498; experiment: Cytotoxicity against human A498 cells after 48 hrs by trypan blue dye exclusion assay; format: functional; settings: A498, 48 h
[53] = tested on: NCI-H522; experiment: Cytotoxicity against human NCI-H522 cells after 48 hrs by trypan blue dye exclusion assay; format: functional; settings: NCI-H522, 48 h
[54] = tested on: SR; experiment: Cytotoxicity against human SR cells after 48 hrs by trypan blue dye exclusion assay; format: functional
[55] = tested on: NCI-H322M; experiment: Cytotoxicity against human NCI-H322M cells after 48 hrs by trypan blue dye exclusion assay; format: functional
[56] = tested on: U-251; experiment: Cytotoxicity against human U251 cells after 48 hrs by trypan blue dye exclusion assay; format: functional; settings: U-251, 48 h
[57] = tested on: SN12C; experiment: Cytotoxicity against human SN12C cells after 48 hrs by trypan blue dye exclusion assay; format: functional
[58] = tested on: NCI-H23; experiment: Cytotoxicity against human NCI-H23 cells after 48 hrs by trypan blue dye exclusion assay; format: functional; settings: NCI-H23, 48 h
[59] = tested on: HCT-116; experiment: Cytotoxicity against human HCT116 cells after 48 hrs by trypan blue dye exclusion assay; format: functional; settings: HCT-116, 48 h

In the case of `COc1cc(OC)cc(C2C3=C(COC3=O)Nc3cc(OC)ccc32)c1` (centres undefined), the GI50 [1] is reported as 20.3 nM, the GI50 [2] is reported as less than 10 nM and the GI50 [3] is reported as less than 10 nM. The GI50 [4] was less than 10 nM, the Activity [5] was “inactive” and the GI50 [6] was less than 10 nM. It also gave a GI50 [7] of less than 10 nM, a GI50 [8] of less than 10 nM and a GI50 [9] of less than 10 nM. For the same compound, the GI50 [10] was less than 10 nM, the GI50 [11] was less than 10 nM and the GI50 [12] was less than 10 nM. For the same compound, the GI50 [13] was less than 10 nM, the GI50 [14] was 14400 nM and the GI50 [15] was less than 10 nM. The GI50 [16] was less than 10 nM, the GI50 [17] was less than 10 nM and the GI50 [18] was less than 10 nM. The GI50 [19] was less than 10 nM, the Activity [20] was “inactive” and the GI50 [21] was less than 10 nM. The GI50 [22] was less than 10 nM, the GI50 [23] was less than 10 nM and the GI50 [24] was less than 10 nM. The GI50 [25] was 16.5 nM, the GI50 [26] was less than 10 nM and the Activity [27] was “inactive”. For the same compound, the GI50 [28] was less than 10 nM, the GI50 [29] was less than 10 nM and the GI50 [30] was less than 10 nM. The GI50 [31] was 8160 nM, the GI50 [32] was less than 10 nM and the GI50 [33] was less than 10 nM. For the same compound, the GI50 [34] was less than 10 nM, the GI50 [35] was less than 10 nM and the GI50 [36] was 20.4 nM. The GI50 [37] was 39700 nM, the GI50 [38] was less than 10 nM and the GI50 [39] was 27.8 nM. For the same compound, the GI50 [40] was less than 10 nM, the GI50 [41] was greater than 100000 nM and the GI50 [42] was less than 10 nM. It also gave a GI50 [43] of less than 10 nM, a GI50 [44] of 13.8 nM and a GI50 [45] of less than 10 nM. For the same compound, the GI50 [46] was 40.4 nM, the GI50 [47] was less than 10 nM and the GI50 [48] was less than 10 nM. The GI50 [49] was 48.8 nM, the GI50 [50] was less than 10 nM and the GI50 [51] was less than 10 nM. For the same compound, the GI50 [52] was less than 10 nM, the GI50 [53] was less than 10 nM and the GI50 [54] was less than 10 nM. The GI50 [55] was less than 10 nM, the GI50 [56] was less than 10 nM and the GI50 [57] was 16.1 nM. It also gave a GI50 [58] of less than 10 nM and a GI50 [59] of less than 10 nM.
